Laboratory results as given in BindingDB's records for doi:10.1016/j.chembiol.2004.12.010 (National Institutes of Health, 2005).
Values joined by “and” are separate entries in the source; they are usually repeats but may differ in a detail not shown here. Equal values may be shown once.

Tests used:
Test in all cases: Binding Assay
Adenosine receptor A2b = target: T1, Adenosine receptor A2b (Homo sapiens, UniProt P29275)
T1 sequence (P29275 whole entry): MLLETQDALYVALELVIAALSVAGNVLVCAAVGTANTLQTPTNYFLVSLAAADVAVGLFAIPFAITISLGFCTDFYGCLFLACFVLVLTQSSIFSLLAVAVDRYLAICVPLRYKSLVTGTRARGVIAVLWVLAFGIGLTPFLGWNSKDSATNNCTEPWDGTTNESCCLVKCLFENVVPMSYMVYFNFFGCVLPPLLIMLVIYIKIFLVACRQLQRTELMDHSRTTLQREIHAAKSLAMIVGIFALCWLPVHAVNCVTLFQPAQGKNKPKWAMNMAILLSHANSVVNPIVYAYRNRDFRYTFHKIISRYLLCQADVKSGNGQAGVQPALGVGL
From the text: (§1) Binding affinity of ligand at human adenosine receptors expressed in CHO cell.

Adenosine receptor A1 = target: T2, Adenosine receptor A1 (Homo sapiens, UniProt P30542)
T2 sequence (P30542 whole entry): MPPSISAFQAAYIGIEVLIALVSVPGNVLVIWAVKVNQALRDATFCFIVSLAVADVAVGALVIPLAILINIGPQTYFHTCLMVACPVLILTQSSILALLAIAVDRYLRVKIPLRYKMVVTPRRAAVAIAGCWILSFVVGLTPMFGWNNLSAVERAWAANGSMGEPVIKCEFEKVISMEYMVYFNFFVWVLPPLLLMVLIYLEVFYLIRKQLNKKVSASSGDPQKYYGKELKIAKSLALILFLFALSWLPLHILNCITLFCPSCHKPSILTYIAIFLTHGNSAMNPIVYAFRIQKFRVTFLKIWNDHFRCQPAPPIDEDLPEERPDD
From the text: as §1

Adenosine receptor A2a [1] = target: T3, Adenosine receptor A2a (Homo sapiens, UniProt P29274)
From the text: as §1

Adenosine receptor A3 = target: T4, Adenosine receptor A3 (Homo sapiens, UniProt P0DMS8)
T4 sequence (P0DMS8 whole entry): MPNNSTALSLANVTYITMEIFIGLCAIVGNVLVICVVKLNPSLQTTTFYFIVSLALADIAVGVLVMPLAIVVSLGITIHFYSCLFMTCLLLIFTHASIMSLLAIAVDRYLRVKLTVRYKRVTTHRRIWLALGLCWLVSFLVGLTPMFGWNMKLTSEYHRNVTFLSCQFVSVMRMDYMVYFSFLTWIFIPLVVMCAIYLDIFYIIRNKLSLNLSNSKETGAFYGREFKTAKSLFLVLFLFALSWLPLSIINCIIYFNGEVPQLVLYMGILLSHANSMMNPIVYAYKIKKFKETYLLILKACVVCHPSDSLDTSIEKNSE
From the text: as §1

Adenosine receptor A2a [2] = target: T3, Adenosine receptor A2a; conditions: pH 7.4; 25 °C
From the text: Binding affinity of ligand at WT and mutant human A2A ARs expressed in COS7 cell.

T3 sequence (P29274 whole entry): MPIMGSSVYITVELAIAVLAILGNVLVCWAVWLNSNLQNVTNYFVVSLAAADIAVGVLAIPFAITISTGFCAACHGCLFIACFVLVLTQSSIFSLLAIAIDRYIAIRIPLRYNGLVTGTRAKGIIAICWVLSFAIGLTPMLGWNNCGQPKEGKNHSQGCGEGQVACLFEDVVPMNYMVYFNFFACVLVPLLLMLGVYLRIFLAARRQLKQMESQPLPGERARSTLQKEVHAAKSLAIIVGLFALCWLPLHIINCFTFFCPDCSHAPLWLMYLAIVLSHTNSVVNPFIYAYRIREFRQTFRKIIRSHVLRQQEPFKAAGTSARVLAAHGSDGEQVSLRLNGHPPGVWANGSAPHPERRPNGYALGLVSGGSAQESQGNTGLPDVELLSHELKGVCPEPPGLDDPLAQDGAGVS

Compound | EC50 (Adenosine receptor A2b) [µM] | Ki (Adenosine receptor A1) [µM] | Ki (Adenosine receptor A2a [1]) [µM] | Ki (Adenosine receptor A3) [µM] | Ki (Adenosine receptor A2a [2])
NNC(=O)[C@H]1O[C@@H](n2cnc3c(N)ncnc32)[C@H](O)[C@@H]1O | 12 | 0.171 | 2.23 | 0.378 | –
CCNC(=O)[C@H]1O[C@@H](n2cnc3c(N=C(N)N)ncnc32)[C@H](O)[C@@H]1O | 0.0545 | 0.007 | 0.628 | 0.0051 | 4.51 µM and 5.68 µM and 0.773 µM and 1.14 µM
NCCNC(=O)[C@H]1O[C@@H](n2cnc3c(N)ncnc32)[C@H](O)[C@@H]1O [5'-N-[(2-AMINO)ETHYL CARBOXAMIDO] ADENOSINE] | 15.6 | 0.245 | – | – | –
CNC(=O)[C@H]1O[C@@H](n2cnc3c(NCCN)ncnc32)[C@H](O)[C@@H]1O [Adenosine analog, 5] | > 10 | 0.775 | > 100 | 24.6 | > 100 µM
NCCCNC(=O)[C@H]1O[C@@H](n2cnc3c(N)ncnc32)[C@H](O)[C@@H]1O [Adenosine analog, 8] | > 10 | > 100 | > 10 | > 10 | –
NCCCCNC(=O)[C@H]1O[C@@H](n2cnc3c(N)ncnc32)[C@H](O)[C@@H]1O [Adenosine analog, 9] | > 10 | > 100 | > 100 | > 10 | > 100 µM and 55.2 µM and 48.1 µM
NCCCCCNC(=O)[C@H]1O[C@@H](n2cnc3c(N)ncnc32)[C@H](O)[C@@H]1O [Adenosine analog, 10] | > 10 | > 100 | > 100 | > 100 | > 100 µM and 124 µM
Nc1ncnc2c1ncn2[C@@H]1O[C@H](C(=O)NCCO)[C@@H](O)[C@H]1O [Adenosine analog, 11] | 0.942 | – | – | – | –
Cc1ccccc1CNc1ncnc2c1ncn2[C@@H]1O[C@H](C(=O)NN)[C@@H](O)[C@H]1O [Adenosine analog, 12] | > 100 | > 10 | > 10 | 0.394 | –
CCNC(=O)[C@H]1O[C@@H](n2cnc3c(NCc4ccccc4C)ncnc32)[C@H](O)[C@@H]1O [Adenosine analog, 13] | > 1 | 0.106 | 5.43 | 0.0788 | –
Cc1ccccc1CNc1ncnc2c1ncn2[C@@H]1O[C@H](C(=O)NCCN)[C@@H](O)[C@H]1O [Adenosine analog, 14] | > 1 | > 10 | 55.9 | > 10 | –
Cc1ccccc1CNc1ncnc2c1ncn2[C@@H]1O[C@H](C(=O)NCCO)[C@@H](O)[C@H]1O [Adenosine analog, 15] | 3.72 | 0.368 | > 10 | 1.64 | –
Cc1ccccc1CNc1ncnc2c1ncn2[C@@H]1O[C@H](CO)[C@@H](O)[C@H]1O [Adenosine analog, 16] | – | 0.0393 | 0.764 | 0.0472 | –
CNc1nc(N)nc2c1ncn2[C@@H]1O[C@H](CO)[C@@H](O)[C@H]1O [Adenosine analog, 17] | > 10 | 0.484 | > 10 | 0.039 | > 100 µM
CNc1nc(CN)nc2c1ncn2[C@@H]1O[C@H](CO)[C@@H](O)[C@H]1O [Adenosine analog, 18] | > 10 | > 10 | > 10 | 0.719 | > 100 µM
CNc1nc(C(=N)N)nc2c1ncn2[C@@H]1O[C@H](CO)[C@@H](O)[C@H]1O [Adenosine analog, 19] | > 10 | > 10 | > 10 | 2.73 | > 100 µM
